Experimental data taken from patent publication US20240053330A1, “MODULAR KINETICALLY-CONTROLLED FUNCTIONAL RNA CONSTRUCTS AND RELATED COMPOSITIONS, SYSTEMS, AND METHODS” (UNIVERSITY OF WASHINGTON, priority 2021, published 2024).

System: J306 target with alternative PAM sequences
Experiment: CRISPRa at alternative PAM sites of the J3-J23117-mRFP1 reporter
Type: cell-based, E. coli
Text: FIGS. 31A and 31B illustrate that dxCas9(3.7) expands the range of targetable scRNA target sites by recognizing alternative PAMs. […] Reporter plasmids were constructed by replacing the AGG PAM site for the J306 target in the J3-J23117-mRFP1 reporter with alternative PAM sequences that have been previously reported to be recognized by dxCas9(3.7) in human cells (Hu, J. H. et al. Evolved Cas9 variants with broad PAM compatibility and high DNA specificity. Nature 556, 57-63 (2018), incorporated herein by reference in its entirety). The (−) sign indicates a control expressing the original reporter with the AGG PAM and the CRISPRa components with Sp-dCas9, the activation domain and no scRNA.
Considering there is a limited number of genes with an appropriate NGG PAM site at precisely the optimal position upstream of the promoter, it was attempted to expand the scope of targetable PAM sites for CRISPRa. A recently characterized dCas9 variant, dxCas9(3.7), that has improved activity at a variety of non-NGG PAM sites including NGN, GAA, GAT, and CAA6 was used. […] PAM sites than NGG PAM sites (not shown), Accounting for the fact that dCas9 has some activity at non-NGG sites6 (FIG. 31), there are still on average ˜2.2-fold more dxCas9(3.7)-compatible PAM sites than dCas9-compatible PAM sites (not shown). […]

Sp-dCas9: S. pyogenes dCas9
CRISPRa activity (in words) (non-NGG PAM sites AGA, CGA, GGA, GGC, GGT, TGA): moderate CRISPRa activity
activation of AGT PAM site shifted into the peak activation range (in words) (reporter with five bases inserted): ineffective
